The values that follow come from patent publication US12304912B2, “Fused bicyclic RAF inhibitors and methods for use thereof” (Jazz Pharmaceuticals Ireland Limited, priority 2020, dated 2025).

In series [1] the test system is RAF dimers in HCT-116 cells. Kind of series: HCT-116 AlphaLISA SureFire pERK1/2 cellular assay (dimer). In kind it is cell-based. The conditions noted are these: Homo sapiens, HCT-116, 1 hr. In short, it runs like this: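 HCT-116 (KRAS G13D) cells, 30,000/well, pretreated 1 h with 1 μM Encorafenib to induce RAF dimers, washed, then dosed 1 h at 37° C with compound (10-point, top 10 μM, 1/2 log steps) in growth medium. pERK1/2 (T202/Y204) measured by AlphaLISA SureFire; absolute IC50 versus DMSO control.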
On the technique in general: Alpha assays give light when donor and acceptor beads are brought close together.

Series [2] can be described thus: Microsomal stability assay, human liver microsomes (HLM). The conditions noted are these: 0.5 mg/mL protein, 1 μM substrate. The series is classed as in vitro ADME. In short, it runs like this: (§1)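 Substrate depletion: 1 μM compound incubated at 37° C. with cryopreserved mouse or human liver microsomes at 0.5 mg·mL^−1 protein. Timed aliquots quenched in ice-cold organic solvent and measured by LC-MS/MS; t1/2 and CLint derived from the slope of ln % remaining versus time.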

Series [3] can be described thus: Microsomal stability assay, mouse liver microsomes (MLM). The conditions noted are these: 0.5 mg/mL protein, 1 μM substrate. The series is classed as in vitro ADME. In short, it runs like this: as §1
Background: Liver microsomes are a subcellular fraction often used to study metabolism.

A short description of series [4]: Plasma protein binding assay, human plasma (hPPB). In kind it is in vitro ADME. The conditions noted are these: 5 μM. In short, it runs like this:
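Equilibrium dialysis of 5 μM compound in previously frozen human or mouse plasma against phosphate buffer, 4 h at 37 °C. Both chambers quantified by LC-MS/MS; % free = (1−((PC−PF)/PC))×100.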

Where [5] appears, read: HCT116 cells, dimer, read-out: pERK HCT116 dimer (1 hr) plC50 (converted).
The mark [6] stands for this setting: equilibrium dialysis 4 hours at 37° C.
Where [7] appears, read: HCT116 cells pre-dosed with 1 μM Encorafenib, read-out: pERK HCT116 dimer (1 hr) pIC50 (converted).
[8] abbreviates: equilibrium dialysis 4 hours 37° C.

Molecules are shown by their SMILES. Like-named read-outs stand apart in the source and are kept apart here. Where only a bound is given, the exact number is not on record here.

With `COc1csc(-c2c[nH]c(C3COc4ccc(Oc5ccnc6c5CCC(=O)N6)cc4C3)n2)c1` (stereo not shown) [Compound 122, 5-[3-[5-(4-methoxy-2-thienyl)-1H-imidazol-2-yl]chroman-6-yl]oxy-3,4-dihydro-1H-1,8-naphthyridin-2-one], the IC50 in series [1] (setting [5]) was 162 nM. Moreover, the microsomal CLint at 1 μM turned out to be 80.3 µL/min/mg in series [2] (37° C.) and 70.8 µL/min/mg in series [3] (37° C.). In addition, the “hPPB (% free)” value in series [4] (setting [6]) is 0.23 % free.
For the compound `CCc1cc(-c2c[nH]c(C3COc4ccc(Oc5ccnc6c5CCC(=O)N6)cc4C3)n2)n(C2CC2)n1` (stereo not shown) [Compound 113, 5-[3-[4-(2-cyclopropyl-5-ethyl-pyrazol-3-yl)-1H-imidazol-2-yl]chroman-6-yl]oxy-3,4-dihydro-1H-1,8-naphthyridin-2-one], the IC50 in series [1] (setting [5]) was 513 nM. Besides, the values for the microsomal CLint at 1 μM in series [2] (37° C.) and in series [3] (37° C.) were 82.1 µL/min/mg and 38.2 µL/min/mg, respectively. In addition, the “hPPB (% free)” value in series [4] (setting [6]) stood at 0.6 % free.
On the same counts, the results for `O=C(CN1CCCC1)Nc1cc(Oc2ccc3c(c2)CC(c2nc(-c4ccccc4)c[nH]2)CO3)ccn1` (stereo not shown) [Compound 152] are 275 nM, 29 µL/min/mg, 259 µL/min/mg and 0.48 % free.
Take `CCc1cc(-c2c[nH]c(C3COc4ccc(Oc5ccnc6c5CCC(=O)N6)cc4C3)n2)ccn1` (stereo not shown) [Compound 118, 5-[3-[4-(2-ethyl-4-pyridyl)-1H-imidazol-2-yl]chroman-6-yl]oxy-3,4-dihydro-1H-1,8-naphthyridin-2-one]: the IC50 in series [1] (setting [5]) is 148 nM. Further, the microsomal CLint at 1 μM in series [2] (37° C.) was 81.2 µL/min/mg; in series [3] (37° C.) it was 40 µL/min/mg. In addition, in series [4] (setting [6]), the “hPPB (% free)” value is on record as 1.3 % free.
In the case of `CN(C)c1ccc2[nH]c(C3COc4ccc(Oc5ccnc6c5CCC(=O)N6)cc4C3)nc2c1` (stereo not shown) [Compound 26], the IC50 in series [1] (setting [7]) is 275 nM. In addition, the microsomal CLint at 1 μM in series [2] worked out at 77.5 µL/min/mg; in series [3], 89.3 µL/min/mg. In addition, the “hPPB (% free)” value in series [4] (setting [8]) is listed as 0.7 % free.
For `COc1cc(-c2c[nH]c(C3COc4ccc(Oc5ccnc6c5CCC(=O)N6)cc4C3)n2)ccn1` (stereo not shown) [Compound 104], in series [1] (setting [5]), the IC50 is 347 nM. For the same compound, the “HLM (CLint)” value in series [2] (37° C.) turned out to be 27.8 µL/min/mg. In series [3] (37° C.), the “MLM (CLint)” value was found to be 23 µL/min/mg. Further, in series [4] (setting [6]), the “hPPB (% free)” value turned out to be 1.9 % free.
Turning to `CC(C)CCc1c[nH]c(C2COc3ccc(Oc4ccnc5c4CCC(=O)N5)cc3C2)n1` (stereo not shown) [Compound 116], in series [1] (setting [5]), the IC50 is 87.1 nM. In series [2] (37° C.), the microsomal CLint at 1 μM is 277 µL/min/mg. In addition, the “hPPB (% free)” value in series [4] (setting [6]) was found to be 0.13 % free.
In the case of `COc1ccsc1-c1c[nH]c(C2COc3ccc(Oc4ccnc5c4CCC(=O)N5)cc3C2)n1` (stereo not shown) [Compound 123], the IC50 in series [1] (setting [5]) was 58.9 nM. Further, the microsomal CLint at 1 μM was found to be 97.5 µL/min/mg in series [2] (37° C.) and 126 µL/min/mg in series [3] (37° C.). Besides, in series [4] (setting [6]), the “hPPB (% free)” value came out at 0.23 % free.
As for `O=C1CCc2c(Oc3ccc4c(c3)CC(c3nc5cc(Cl)ccc5[nH]3)CO4)ccnc2N1` (stereo not shown) [Compound 25], the IC50 in series [1] (setting [7]) was 115 nM. The microsomal CLint at 1 μM amounted to 50.1 µL/min/mg in series [2] and 48.5 µL/min/mg in series [3]. The “hPPB (% free)” value in series [4] (setting [8]) is 0.3 % free.
For `Cc1cc(-c2c[nH]c(C3COc4ccc(Oc5ccnc6c5CCC(=O)N6)cc4C3)n2)ccn1` (stereo not shown) [Compound 117, 5-[3-[4-(2-methyl-4-pyridyl)-1H-imidazol-2-yl]chroman-6-yl]oxy-3,4-dihydro-1H-1,8-naphthyridin-2-one], the IC50 in series [1] (setting [5]) was 110 nM. The intrinsic metabolic clearance (microsomal CLint) at 1 μM in series [2] (37° C.) is 43.3 µL/min/mg; in series [3] (37° C.), 13.4 µL/min/mg. Moreover, the “hPPB (% free)” value in series [4] (setting [6]) is listed as 2.6 % free.
On the same counts, the results for `CN1CCC(C(=O)Nc2cc(Oc3ccc4c(c3)CC(c3nc(-c5ccccc5)c[nH]3)CO4)ccn2)CC1` (stereo not shown) [Compound 147, 1-methyl-N-[4-[3-(4-phenyl-1H-imidazol-2-yl)chroman-6-yl]oxy-2-pyridyl]piperidine-4-carboxamide] are 437 nM, 10.4 µL/min/mg, 102 µL/min/mg and 0.5 % free.
Consider `CC1CC1C(=O)Nc1cc(Oc2ccc3c(c2)CC(c2nc(-c4ccccc4)c[nH]2)CO3)ccn1` (stereo not shown) [Compound 157], for which the IC50 in series [1] (setting [5]) was 174 nM. Moreover, the microsomal CLint at 1 μM in series [2] (37° C.) was found to be 35.7 µL/min/mg. Also, in series [3] (37° C.), the “MLM (CLint)” value amounted to 277 µL/min/mg. Besides, the “hPPB (% free)” value in series [4] (setting [6]) was below 0.1 % free.
As to `O=C(Nc1cc(Oc2ccc3c(c2)CC(c2nc(-c4ccccc4)c[nH]2)CO3)ccn1)C1CC1` (racemic) [Compound 136], the IC50 in series [1] (setting [5]) is 89.1 nM. The microsomal CLint at 1 μM in series [2] (37° C.) came out at 58.1 µL/min/mg. Further, the “MLM (CLint)” value in series [3] (37° C.) is 277 µL/min/mg. The “hPPB (% free)” value in series [4] (setting [6]) is 0.2 % free.
Consider `O=C(Nc1cc(Oc2ccc3c(c2)CC(c2nc(-c4ccccc4)c[nH]2)CO3)ccn1)C1CC1` (stereo not shown) [Compound 45, N-[4-[3-(4-phenyl-1H-imidazol-2-yl)chroman-6-yl]oxy-2-pyridyl]cyclopropanecarboxamide], for which the IC50 in series [1] (setting [7]) was 89.1 nM. In addition, the microsomal CLint at 1 μM was found to be 58.1 µL/min/mg in series [2] and 277 µL/min/mg in series [3]. The “hPPB (% free)” value in series [4] (setting [8]) is 0.2 % free.
For `Cc1cc(-c2c[nH]c(C3COc4ccc(Oc5ccnc6c5CCC(=O)N6)cc4C3)n2)n(C2CC2)n1` (stereo not shown) [Compound 114, 5-[3-[4-(2-cyclopropyl-5-methyl-pyrazol-3-yl)-1H-imidazol-2-yl]chroman-6-yl]oxy-3,4-dihydro-1H-1,8-naphthyridin-2-one], the IC50 in series [1] (setting [5]) was 363 nM. Also, the microsomal CLint at 1 μM was determined as 38.5 µL/min/mg in series [2] (37° C.) and 12.6 µL/min/mg in series [3] (37° C.). For the same compound, the “hPPB (% free)” value in series [4] (setting [6]) is 1.2 % free.
Take `O=C1CCc2c(Oc3ccc4c(c3)CN(C(=O)Nc3cccc(C(F)(F)F)c3)CC4)ccnc2N1` [Compound 50]: the IC50 in series [1] (setting [7]) is 64.6 nM. Also, the results for the microsomal CLint at 1 μM in series [2] and in series [3] were 70.4 µL/min/mg and 79 µL/min/mg, respectively. Moreover, in series [4] (setting [8]), the “hPPB (% free)” value came out at 1.2 % free.
Turning to `COc1cc(-c2c[nH]c(C3COc4ccc(Oc5ccnc6c5CCC(=O)N6)cc4C3)n2)ccn1` (stereo not shown) [Compound 19, 5-[3-[4-(2-methoxy-4-pyridyl)-1H-imidazol-2-yl]chroman-6-yl]oxy-3,4-dihydro-1H-1,8-naphthyridin-2-one], the IC50 in series [1] (setting [7]) was 347 nM. Also, the microsomal CLint at 1 μM was determined as 27.8 µL/min/mg in series [2] and 23 µL/min/mg in series [3]. Further, the “hPPB (% free)” value in series [4] (setting [8]) is 1.9 % free.
In the case of `O=C1CCc2c(Oc3ccc4c(c3)CC(c3nc(C5CCOCC5)c[nH]3)CO4)ccnc2N1` (stereo not shown) [Compound 132, 5-[3-(4-tetrahydropyran-4-yl-1H-imidazol-2-yl)chroman-6-yl]oxy-3,4-dihydro-1H-1,8-naphthyridin-2-one], the IC50 in series [1] (setting [5]) was 427 nM. The microsomal CLint at 1 μM in series [2] (37° C.) amounted to 20.7 µL/min/mg; in series [3] (37° C.) it was 9.3 µL/min/mg. In series [4] (setting [6]), the “hPPB (% free)” value came out at 2.6 % free.
As to `CCn1nc(C)cc1-c1c[nH]c(C2COc3ccc(Oc4ccnc5c4CCC(=O)N5)cc3C2)n1` (stereo not shown) [Compound 124, 5-[3-[4-(2-ethyl-5-methyl-pyrazol-3-yl)-1H-imidazol-2-yl]chroman-6-yl]oxy-3,4-dihydro-1H-1,8-naphthyridin-2-one], the IC50 in series [1] (setting [5]) was 269 nM. The results for the microsomal CLint at 1 μM in series [2] (37° C.) and in series [3] (37° C.) were 65.8 µL/min/mg and 28.2 µL/min/mg, respectively. Besides, the “hPPB (% free)” value in series [4] (setting [6]) was 2.7 % free.
Regarding `Cc1cc(-c2c[nH]c(C3COc4ccc(Oc5ccnc6c5CCC(=O)N6)cc4C3)n2)n(C)n1` (stereo not shown) [Compound 106, 5-[3-[4-(2,5-dimethylpyrazol-3-yl)-1H-imidazol-2-yl]chroman-6-yl]oxy-3,4-dihydro-1H-1,8-naphthyridin-2-one], the IC50 in series [1] (setting [5]) was 123 nM. The microsomal CLint at 1 μM in series [2] (37° C.) was 10.5 µL/min/mg; in series [3] (37° C.), 17.1 µL/min/mg. Besides, the “hPPB (% free)” value in series [4] (setting [6]) came to 2.4 % free.
On to `CC(C)(C)CCc1c[nH]c(C2COc3ccc(Oc4ccnc5c4CCC(=O)N5)cc3C2)n1` (stereo not shown) [Compound 115, 5-[3-[4-(3,3-dimethylbutyl)-1H-imidazol-2-yl]chroman-6-yl]oxy-3,4-dihydro-1H-1,8-naphthyridin-2-one], for which the IC50 in series [1] (setting [5]) was 105 nM. Moreover, the microsomal CLint at 1 μM in series [2] (37° C.) came to 277 µL/min/mg. Also, the “hPPB (% free)” value in series [4] (setting [6]) is recorded as 0.3 % free.
Regarding `O=C1CCc2c(Oc3ccc4c(c3)CC(c3nc(-c5cccnc5C(F)(F)F)c[nH]3)CO4)ccnc2N1` (stereo not shown) [Compound 128, 5-[3-[4-[2-(trifluoromethyl)-3-pyridyl]-1H-imidazol-2-yl]chroman-6-yl]oxy-3,4-dihydro-1H-1,8-naphthyridin-2-one], the IC50 in series [1] (setting [5]) is 263 nM. Further, the “hPPB (% free)” value in series [4] (setting [6]) came to 0.9 % free.
As for `Cn1nc(C2CC2)cc1-c1c[nH]c(C2COc3ccc(Oc4ccnc5c4CCC(=O)N5)cc3C2)n1` (stereo not shown) [Compound 125, 5-[3-[4-(5-cyclopropyl-2-methyl-pyrazol-3-yl)-1H-imidazol-2-yl]chroman-6-yl]oxy-3,4-dihydro-1H-1,8-naphthyridin-2-one], in series [1] (setting [5]), the IC50 is 138 nM.

Usually microsomal CLint stands for the capacity of the preparation to metabolise the compound, expressed as a volume cleared per time.
